{"source": "patent US10173968B2", "about": "“Bishydrazone-based antifungal agents” (University of Kentucky Research Foundation, priority 2016, dated 2019)", "key": {"MRSA (strain C)": {"system": "MRSA (strain C)", "format": "cell-based, Staphylococcus aureus", "method": "(§1) The bacteria were grown in MH broth at 37° C. for these experiments. […] The resulting cultures were diluted 1:1000 and grown until the culture reached ˜300,000 cfu/mL. That culture was then further diluted 1:1000 and used to determine the next round of MIC values."}, "VRE (strain D)": {"system": "VRE (strain D)", "format": "cell-based, enterococcus", "method": "as §1"}, "C. albicans ATCC 10231 [1]": {"system": "C. albicans ATCC 10231", "assay": "Intracellular ROS production, DCFH-DA fluorescence assay", "format": "cell-based, Candida albicans", "conditions": "at 1× and 2× MIC values, 1 h at 35° C.", "source_text": "We used the 2′,7′-dichlorodihydrofluorescein diacetate (DCFH-DA) dye as a probe to measure the production of ROS in yeast cells upon treatment with our compounds. DCFH-DA can easily cross the cell membranes and be hydrolyzed by cellular esterases to the non-fluorescent 2′,7′-dichlorodihydrofluorescein (DCFH), which can further be oxidized to the highly fluorescent 2′,7′-dichlorofluorescein (DCF) by the intracellular ROS. Five mL of RPMI 1640 medium were inoculated using a single colony of C. albicans ATCC 10231 (strain A) in a Falcon tube and grown overnight at 35° C. at 200 rpm. The overnight culture was diluted by adding 200 μL of yeast cells to 800 μL of the same medium. […] H2O2 at 1 mM was also used as a positive control. Cells were centrifuged and washed twice with PBS buffer (pH 7.2). Cells were resuspended in the same buffer and incubated with DCFH-DA (20 μg/mL) for 30 min in the dark. Afterwards, cells were centrifuged and washed with PBS buffer to remove excess DCFH-DA. Glass slides with 10-15 μL of each mixture were prepared and observed in bright field and fluorescence modes (FITC filter set, excitation and emission wavelengths of 488 and 512 nm, respectively) using a Zeiss Axovert 200M fluorescence microscope (FIG. 3)."}, "C. albicans ATCC 10231 [2]": {"system": "C. albicans ATCC 10231", "format": "cell-based, Candida albicans"}, "[3]": {"system": "P. aeruginosa ATCC 27853 (strain I)", "format": "cell-based", "method": "as §1"}, "[4]": {"system": "C. albicans strains (panel of seven)", "assay": "Antifungal MIC, summary over the panel", "format": "cell-based, Candida albicans", "method": "In vitro MIC testing was performed according to the CLSI M27-A3 standard microbroth dilution methodology for the susceptibility testing of yeasts with minor modifications. […] MIC values were read visually for all tested compounds, and the endpoint was determined as the minimum concentration of compound that yielded complete inhibition relative to growth control."}, "[5]": {"system": "L. monocytogenes ATCC 19115", "assay": "Antibacterial MIC, double-dilution method", "format": "cell-based", "conditions": "Listeria monocytogenes, ATCC19115, strain B, Gram-positive, read-out: MIC", "outline": "(§2)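 The lowest inhibitory concentration is reported from a twofold dilution series, after an initial single-concentration screen with every compound at 500 μM.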"}, "VRE": {"system": "VRE", "assay": "Antibacterial MIC, double-dilution method", "format": "cell-based", "conditions": "Enterococcus, strain D, Gram-positive, converted from μM, read-out: MIC", "outline": "as §2"}, "K. pneumoniae ATCC 27736": {"system": "K. pneumoniae ATCC 27736", "assay": "Antibacterial MIC, double-dilution method", "format": "cell-based", "conditions": "Klebsiella pneumoniae, ATCC27736, strain H, Gram-negative, read-out: MIC", "outline": "as §2"}, "P. aeruginosa ATCC 27853": {"system": "P. aeruginosa ATCC 27853", "assay": "Antibacterial MIC, double-dilution method", "format": "cell-based", "conditions": "Pseudomonas aeruginosa, ATCC27853, strain I, Gram-negative, read-out: MIC", "outline": "as §2"}, "S. enterica ATCC 14028": {"system": "S. enterica ATCC 14028", "assay": "Antibacterial MIC, double-dilution method", "format": "cell-based", "conditions": "Salmonella enterica, ATCC14028, strain J, Gram-negative, read-out: MIC", "outline": "as §2"}, "E. coli MC1061": {"system": "E. coli MC1061", "assay": "Antibacterial MIC, double-dilution method", "format": "cell-based", "conditions": "Escherichia coli, strain G, Gram-negative, read-out: MIC", "outline": "as §2"}, "M. smegmatis MC2-155": {"system": "M. smegmatis MC2-155", "assay": "Antibacterial MIC, double-dilution method", "format": "cell-based", "conditions": "Mycolicibacterium smegmatis, MC2155, strain K, mycobacterial; converted from μM; read-out: MIC", "outline": "as §2"}, "B. subtilis 168": {"system": "B. subtilis 168", "assay": "Antibacterial MIC, double-dilution method", "format": "cell-based", "conditions": "Bacillus subtilis, strain A, Gram-positive", "outline": "as §2"}, "MRSA": {"system": "MRSA", "assay": "Antibacterial MIC, double-dilution method", "format": "cell-based", "conditions": "Staphylococcus aureus, strain C, Gram-positive, read-out: MIC", "outline": "as §2"}, "[6]": {"system": "L. monocytogenes ATCC 19115 (strain B)", "format": "cell-based, Listeria monocytogenes", "method": "as §1"}, "C. albicans ATCC 90819": {"system": "C. albicans ATCC 90819", "assay": "Antifungal MIC, CLSI M27-A3 microbroth dilution", "format": "cell-based, Candida albicans", "conditions": "Candida albicans, ATCC90819; C. albicans ATCC 90819, resistant to FLC, ITC, and VOR; converted from μg/mL; read-out: MIC", "method": "(§3) In vitro MIC testing was performed according to the CLSI M27-A3 standard microbroth dilution methodology for the susceptibility testing of yeasts with minor modifications."}, "C. albicans ATCC 2876": {"system": "C. albicans ATCC 2876", "assay": "Antifungal MIC, CLSI M27-A3 microbroth dilution", "format": "cell-based, Candida albicans", "conditions": "Candida albicans, ATCC2876; C. albicans ATCC 2876, susceptible to FLC, ITC, and VOR; converted from μg/mL; read-out: MIC", "method": "as §3"}, "C. albicans ATCC 64124": {"system": "C. albicans ATCC 64124", "assay": "Antifungal MIC, CLSI M27-A3 microbroth dilution", "format": "cell-based, Candida albicans", "conditions": "Candida albicans, ATCC64124; C. albicans ATCC 64124, resistant to FLC, ITC, and VOR; converted from μg/mL; read-out: MIC", "method": "as §3"}, "C. albicans ATCC 1237": {"system": "C. albicans ATCC 1237", "assay": "Antifungal MIC, CLSI M27-A3 microbroth dilution", "format": "cell-based, Candida albicans", "conditions": "Candida albicans, ATCC1237, C. albicans ATCC 1237, resistant to FLC, ITC, and VOR; converted from μg/mL; read-out: MIC", "method": "as §3"}, "C. albicans ATCC 1003": {"system": "C. albicans ATCC 1003", "assay": "Antifungal MIC, CLSI M27-A3 microbroth dilution", "format": "cell-based, Candida albicans", "conditions": "Candida albicans, ATCC1003; C. albicans ATCC 1003; converted from μg/mL; read-out: MIC", "method": "as §3"}, "C. albicans ATCC 10231 [7]": {"system": "C. albicans ATCC 10231", "assay": "Antifungal MIC, CLSI M27-A3 microbroth dilution", "format": "cell-based, Candida albicans", "conditions": "Candida albicans, ATCC10231, C. albicans ATCC 10231, resistant to FLC, ITC, and VOR, read-out: MIC", "method": "as §3"}, "C. albicans ATCC 2310": {"system": "C. albicans ATCC 2310", "assay": "Antifungal MIC, CLSI M27-A3 microbroth dilution", "format": "cell-based, Candida albicans", "conditions": "Candida albicans, ATCC2310; C. albicans ATCC 2310, susceptible to FLC, ITC, and VOR; converted from μg/mL; read-out: MIC", "method": "as §3"}, "[8]": {"conditions": "after 15 serial passages at sub-inhibitory concentrations"}}, "note": "Where two headings read alike, the source gives them in different places."}
{"smiles": "C/C(=N\\NC(=N)N)c1ccc2c(c1)Cc1cc(/C(C)=N/NC(=N)N)ccc1-2.Cl.Cl", "note": "[Compound 4F, (2E,2′E)-2,2′-((9H-Fluorene-2,7-diyl)bis(ethan-1-yl-1-ylidene))bis(hydrazine-1-carboximidamide) dihydrochloride]", "values": [{"measurement": "increase in relative MIC values", "setting": "MRSA (strain C); [8]", "value": "one-fold"}, {"measurement": "development of resistance (passages after which resistance developed)", "setting": "MRSA (strain C); up to 15 passages", "value": "did not develop resistance"}, {"measurement": "increase in relative MIC values", "setting": "VRE (strain D); [8]", "value": "one-fold"}, {"measurement": "development of resistance (passages after which resistance developed)", "setting": "VRE (strain D); up to 15 passages", "value": "did not develop resistance"}, {"measurement": "intracellular ROS production", "setting": "C. albicans ATCC 10231 [1]", "value": "significantly increased intracellular ROS production"}, {"measurement": "shift in relative MIC values", "setting": "C. albicans ATCC 10231 [2]; after 13 passages, sub-MIC drug concentrations", "value": 2, "unit": "fold"}, {"measurement": "development of drug resistance", "setting": "C. albicans ATCC 10231 [2]; repeated treatments with sub-MIC drug concentrations", "value": "unable to develop drug resistance"}, {"measurement": "increase in relative MIC values", "setting": "[3]; [8]", "value": "one-fold"}, {"measurement": "development of resistance (passages after which resistance developed)", "setting": "[3]; up to 15 passages", "value": "did not develop resistance"}, {"measurement": "MIC", "setting": "[4]; Candida albicans, all, most or majority of the fungal strains, read-out: MIC, span over C. albicans strains", "value": "1 to 3.9", "unit": "µg/mL"}, {"measurement": "antifungal activity in words", "setting": "[4]; against all fungal strains tested", "value": "excellent antifungal activities"}, {"measurement": "MIC", "setting": "[5]; converted from μM", "value": "< 0.2", "unit": "µg/mL"}, {"measurement": "MIC", "setting": "[5]; range 0.5 to 500 μM", "value": "< 0.5", "unit": "µM"}, {"measurement": "MIC", "setting": "VRE", "value": 0.4, "unit": "µg/mL"}, {"measurement": "MIC", "setting": "K. pneumoniae ATCC 27736; converted from μM", "value": "13.6 to 27.2", "unit": "µg/mL"}, {"measurement": "MIC", "setting": "K. pneumoniae ATCC 27736; range 0.5 to 500 μM", "value": "31.3 to 62.5", "unit": "µM"}, {"measurement": "MIC", "setting": "P. aeruginosa ATCC 27853; converted from μM", "value": "0.4 to 0.9", "unit": "µg/mL"}, {"measurement": "MIC", "setting": "P. aeruginosa ATCC 27853; range 0.5 to 500 μM", "value": "1 to 2", "unit": "µM"}, {"measurement": "MIC", "setting": "S. enterica ATCC 14028; converted from μM", "value": 1.7, "unit": "µg/mL"}, {"measurement": "MIC", "setting": "S. enterica ATCC 14028; range 0.5 to 500 μM", "value": 3.9, "unit": "µM"}, {"measurement": "MIC", "setting": "E. coli MC1061; converted from μM", "value": 218, "unit": "µg/mL"}, {"measurement": "MIC", "setting": "E. coli MC1061; range 0.5 to 500 μM", "value": 500, "unit": "µM"}, {"measurement": "MIC", "setting": "M. smegmatis MC2-155", "value": 0.4, "unit": "µg/mL"}, {"measurement": "MIC", "setting": "B. subtilis 168; converted from μM", "value": 3.4, "unit": "µg/mL"}, {"measurement": "MIC", "setting": "B. subtilis 168; range 0.5 to 500 μM", "value": 7.8, "unit": "µM"}, {"measurement": "MIC", "setting": "MRSA; converted from μM", "value": "0.4 to 0.9", "unit": "µg/mL"}, {"measurement": "MIC", "setting": "MRSA; range 0.5 to 500 μM", "value": "1 to 2", "unit": "µM"}, {"measurement": "increase in relative MIC values", "setting": "[6]; [8]", "value": "one-fold"}, {"measurement": "development of resistance (passages after which resistance developed)", "setting": "[6]; up to 15 passages", "value": "did not develop resistance"}, {"measurement": "MIC", "setting": "C. albicans ATCC 90819", "value": 4.6, "unit": "µM"}, {"measurement": "MIC", "setting": "C. albicans ATCC 2876", "value": 2.3, "unit": "µM"}, {"measurement": "MIC", "setting": "C. albicans ATCC 64124", "value": 2.3, "unit": "µM"}, {"measurement": "MIC", "setting": "C. albicans ATCC 1237", "value": 4.6, "unit": "µM"}, {"measurement": "MIC", "setting": "C. albicans ATCC 1003", "value": 2.3, "unit": "µM"}, {"measurement": "MIC", "setting": "C. albicans ATCC 10231 [7]; converted from μg/mL", "value": "2.3 to 4.6", "unit": "µM"}, {"measurement": "MIC", "setting": "C. albicans ATCC 10231 [7]", "value": "1 to 2", "unit": "µg/mL"}, {"measurement": "MIC", "setting": "C. albicans ATCC 2310", "value": 2.3, "unit": "µM"}]}
